Values joined by “and” are separate entries in the source; they are usually repeats but may differ in a detail not shown here. Equal values may be shown once. Inconclusive results and toxic doses are left out.
Tested on: L1210 leukemia ip in BDF1 mice, survival T/C
Experiment: NCI In Vivo Anticancer Drug Screen. Data for tumor model L1210 Leukemia (intraperitoneal) in B6D2F1 (BDF1) mice
Settings: endpoint: mean survival time, higher = longer survival
Outline: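 Tumor was transplanted into mice, which were then dosed with test compound or vehicle alone. Survival was recorded for each group, and the treated figure was expressed relative to the control figure.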

[1] = dose: 100.0 mg/kg/injection, schedule: Q01DX001 (ip), vehicle: carboxymethylcellulose (CMC)
[2] = dose: 400.0 mg/kg/injection, schedule: Q01DX001 (ip), vehicle: carboxymethylcellulose (CMC)
[3] = dose: 50.0 mg/kg/injection, schedule: Q01DX001 (sc), vehicle: steriod suspending solution
[4] = dose: 100.0 mg/kg/injection, schedule: Q01DX001 (sc), vehicle: steriod suspending solution
[5] = dose: 200.0 mg/kg/injection, schedule: Q01DX001 (sc), vehicle: steriod suspending solution
[6] = dose: 400.0 mg/kg/injection, schedule: Q01DX001 (sc), vehicle: steriod suspending solution
[7] = dose: 100.0 mg/kg/injection, schedule: Q01DX001 (ip), vehicle: saline
[8] = dose: 200.0 mg/kg/injection, schedule: Q01DX001 (ip), vehicle: saline
[9] = dose: 400.0 mg/kg/injection, schedule: Q01DX001 (ip), vehicle: saline
[10] = dose: 100.0 mg/kg/injection, schedule: Q01DX001 (ip), vehicle: Klucel (hydroxypropylcellulose) (HPC)
[11] = dose: 200.0 mg/kg/injection, schedule: Q01DX001 (ip), vehicle: Klucel (hydroxypropylcellulose) (HPC)
[12] = dose: 400.0 mg/kg/injection, schedule: Q01DX001 (ip), vehicle: Klucel (hydroxypropylcellulose) (HPC)
[13] = dose: 50.0 mg/kg/injection, schedule: Q01DX001 (ip), vehicle: saline
[14] = dose: 200.0 mg/kg/injection, schedule: Q01DX001 (ip), vehicle: carboxymethylcellulose (CMC)
[15] = dose: 25.0 mg/kg/injection, schedule: Q04DX003 (ip), vehicle: saline

Structure (SMILES): N=C(CNC1CC2CCC1C2)SS(=O)(=O)O (configuration not stated)
- T/C (dose: 3.13 mg/kg/injection, schedule: Q01DX009 (ip), vehicle: Klucel (hydroxypropylcellulose) (HPC)): 97 % of control
- T/C (dose: 3.13 mg/kg/injection, schedule: Q04DX002 (ip), vehicle: Klucel (hydroxypropylcellulose) (HPC)): 98 % of control
- T/C (dose: 6.25 mg/kg/injection, schedule: Q01DX009 (ip), vehicle: Klucel (hydroxypropylcellulose) (HPC)): 94 % of control
- T/C (dose: 6.25 mg/kg/injection, schedule: Q04DX002 (ip), vehicle: Klucel (hydroxypropylcellulose) (HPC)): 95 % of control
- T/C (dose: 12.5 mg/kg/injection, schedule: Q01DX009 (ip), vehicle: Klucel (hydroxypropylcellulose) (HPC)): 105 % of control
- T/C (dose: 12.5 mg/kg/injection, schedule: Q04DX002 (ip), vehicle: Klucel (hydroxypropylcellulose) (HPC)): 98 % of control and 103 % of control

Structure (SMILES): Cc1ccc(NC(=O)N(CCBr)N=O)cc1
- T/C (dose: 26.0 mg/kg/injection, schedule: Q01DX015 (ip), vehicle: carboxymethylcellulose (CMC)): 117 % of control
- T/C (dose: 39.0 mg/kg/injection, schedule: Q01DX015 (ip), vehicle: carboxymethylcellulose (CMC)): 101 % of control
- T/C (dose: 58.0 mg/kg/injection, schedule: Q01DX015 (ip), vehicle: carboxymethylcellulose (CMC)): 101 % of control and 121 % of control
- T/C (dose: 88.0 mg/kg/injection, schedule: Q01DX015 (ip), vehicle: carboxymethylcellulose (CMC)): 103 % of control
- T/C [1]: 122 % of control
- T/C (dose: 133.0 mg/kg/injection, schedule: Q01DX015 (ip), vehicle: carboxymethylcellulose (CMC)): 89 % of control
- T/C (dose: 266.0 mg/kg/injection, schedule: Q01DX001 (ip), vehicle: carboxymethylcellulose (CMC)): 168 % of control
- T/C [2]: 150 % of control and 153 % of control

Structure (SMILES): COc1ccc(C23OC2Oc2cc(OC4CCCCO4)ccc2C3O)cc1 (configuration not stated)
- T/C [3]: 101 % of control
- T/C [4]: 101 % of control
- T/C [5]: 101 % of control
- T/C [6]: 95 % of control

Structure (SMILES): [BH3-][NH2+]c1cccc([NH2+][BH3-])c1
- T/C [7]: 100 % of control
- T/C [8]: 96 % of control
- T/C [9]: 94 % of control

Structure (SMILES): COc1ccc(-n2nnnc2N)cc1
- T/C [10]: 99 % of control
- T/C [11]: 102 % of control
- T/C [12]: 96 % of control

Structure (SMILES): Nc1nc2c(c(=O)[nH]1)N=C(CNc1ccc(C(=O)NC(CCC(=O)O)C(=O)O)cc1)CN2 (configuration not stated)
- T/C (dose: 2.0 mg/kg/injection, schedule: Q01DX009 (ip), vehicle: sodium bicarbonate): 109 % of control
- T/C (dose: 4.0 mg/kg/injection, schedule: Q01DX009 (ip), vehicle: sodium bicarbonate): 115 % of control
- T/C (dose: 8.0 mg/kg/injection, schedule: Q01DX009 (ip), vehicle: sodium bicarbonate): 116 % of control
- T/C (dose: 16.0 mg/kg/injection, schedule: Q01DX009 (ip), vehicle: sodium bicarbonate): 115 % of control

Structure (SMILES): OCCN(CCO)c1cccc(C(F)(F)F)c1
- T/C [13]: 96 % of control
- T/C [7]: 100 % of control
- T/C [8]: 106 % of control
- T/C [9]: 96 % of control

Structure (SMILES): CC(=O)OC1CCC2C3C(C)C4(O)C=CCCC(C)(O4)C3CCC12C (configuration not stated)
- T/C [3]: 100 % of control
- T/C [4]: 89 % of control
- T/C [5]: 96 % of control
- T/C [6]: 105 % of control

Structure (SMILES): Nc1cc2c(cc1Br)-c1cc(Br)c(N)cc1C2=O
- T/C [1]: 98 % of control
- T/C [14]: 98 % of control
- T/C [2]: 102 % of control

Structure (SMILES): COc1ccc(NC(=O)Oc2ccc(Br)cc2Br)c(Cl)c1
- T/C (dose: 50.0 mg/kg/injection, schedule: Q01DX009 (ip), vehicle: saline + alcohol): 87 % of control
- T/C (dose: 100.0 mg/kg/injection, schedule: Q01DX009 (ip), vehicle: saline + alcohol): 87 % of control
- T/C (dose: 200.0 mg/kg/injection, schedule: Q01DX009 (ip), vehicle: saline + alcohol): 97 % of control

Structure (SMILES): NC(=O)c1cc(=O)n(C2OC(CO)C(O)C2O)c2ncnc(N)c12 (configuration not stated)
- T/C (dose: 12.5 mg/kg/injection, schedule: Q01DX005 (ip), vehicle: water): 104 % of control
- T/C (dose: 25.0 mg/kg/injection, schedule: Q01DX005 (ip), vehicle: water): 90 % of control
- T/C (dose: 50.0 mg/kg/injection, schedule: Q01DX005 (ip), vehicle: water): 95 % of control
- T/C (dose: 100.0 mg/kg/injection, schedule: Q01DX005 (ip), vehicle: water): 98 % of control
- T/C (dose: 200.0 mg/kg/injection, schedule: Q01DX005 (ip), vehicle: water): 95 % of control

Structure (SMILES): COc1ccc(/C(=N\N=C(N)N)C2CC2)cc1
- T/C (dose: 120.0 mg/kg/injection, schedule: Q01DX Z (oral), vehicle: carboxymethylcellulose (CMC)): 90 % of control

Structure (SMILES): N#CC(c1ccccc1)c1cccnc1 (configuration not stated)
- T/C [1]: 94 % of control
- T/C [14]: 92 % of control
- T/C [2]: 89 % of control

Structure (SMILES): COc1ccc(C(=O)NC(=S)Nc2ccc(O)cc2)cc1
- T/C (dose: 100.0 mg/kg/injection, schedule: Q01DX009 (ip), vehicle: saline with Tween-80): 97 % of control and 104 % of control
- T/C (dose: 100.0 mg/kg/injection, schedule: Q04DX002 (ip), vehicle: saline with Tween-80): 98 % of control
- T/C (dose: 100.0 mg/kg/injection, schedule: Q04DX003 (ip), vehicle: saline with Tween-80): 99 % of control
- T/C (dose: 200.0 mg/kg/injection, schedule: Q01DX009 (ip), vehicle: saline with Tween-80): 108 % of control and 109 % of control
- T/C (dose: 200.0 mg/kg/injection, schedule: Q04DX002 (ip), vehicle: saline with Tween-80): 104 % of control
- T/C (dose: 200.0 mg/kg/injection, schedule: Q04DX003 (ip), vehicle: saline with Tween-80): 94 % of control
- T/C (dose: 400.0 mg/kg/injection, schedule: Q01DX009 (ip), vehicle: saline with Tween-80): 98 % of control and 101 % of control
- T/C (dose: 400.0 mg/kg/injection, schedule: Q04DX002 (ip), vehicle: saline with Tween-80): 95 % of control
- T/C (dose: 400.0 mg/kg/injection, schedule: Q04DX003 (ip), vehicle: saline with Tween-80): 96 % of control

Structure (SMILES): CCC1(C)CC1(Cl)Cl (configuration not stated)
- T/C (dose: 100.0 mg/kg/injection, schedule: Q04DX003 (ip), vehicle: other): 105 % of control
- T/C (dose: 200.0 mg/kg/injection, schedule: Q04DX003 (ip), vehicle: other): 102 % of control
- T/C (dose: 400.0 mg/kg/injection, schedule: Q04DX003 (ip), vehicle: other): 100 % of control

Structure (SMILES): C=C1CC(O)C2C(C)C(=O)OC2C2C1CC1OC12C (configuration not stated)
- T/C (dose: 100.0 mg/kg/injection, schedule: Q04DX002 (ip), vehicle: saline): 92 % of control
- T/C (dose: 200.0 mg/kg/injection, schedule: Q04DX002 (ip), vehicle: saline): 95 % of control
- T/C (dose: 400.0 mg/kg/injection, schedule: Q04DX002 (ip), vehicle: saline): 92 % of control

Structure (SMILES): O=C(COc1ccccc1Cl)Nc1cccnc1
- T/C [10]: 113 % of control
- T/C [11]: 103 % of control
- T/C [12]: 103 % of control

Structure (SMILES): CCN(CC)CCCNc1nc(C(Cl)(Cl)Cl)nc2ccc(I)cc12
- T/C (dose: 100.0 mg/kg/injection, schedule: Q01DX009 (ip), vehicle: Klucel (hydroxypropylcellulose) (HPC)): 96 % of control
- T/C (dose: 200.0 mg/kg/injection, schedule: Q01DX009 (ip), vehicle: Klucel (hydroxypropylcellulose) (HPC)): 100 % of control

Structure (SMILES): CCCCC/C=C(\CCCCCC)c1ccccc1
- T/C (dose: 100.0 mg/kg/injection, schedule: Q01DX001 (ip), vehicle: saline with Tween-80): 98 % of control
- T/C (dose: 200.0 mg/kg/injection, schedule: Q01DX001 (ip), vehicle: saline with Tween-80): 95 % of control
- T/C (dose: 400.0 mg/kg/injection, schedule: Q01DX001 (ip), vehicle: saline with Tween-80): 90 % of control

Structure (SMILES): O=COC1CC2CC1c1ccccc12 (configuration not stated)
- T/C [13]: 105 % of control
- T/C [7]: 105 % of control
- T/C [8]: 105 % of control
- T/C [9]: 105 % of control

Structure (SMILES): CCc1ccc2c(c1)N(CC(C)CN(C)C)c1ccccc1S2 (configuration not stated)
- T/C (dose: 1.56 mg/kg/injection, schedule: Q01DX009 (ip), vehicle: saline): 115 % of control
- T/C (dose: 3.12 mg/kg/injection, schedule: Q01DX009 (ip), vehicle: saline): 109 % of control
- T/C (dose: 6.25 mg/kg/injection, schedule: Q01DX009 (ip), vehicle: saline): 106 % of control
- T/C (dose: 12.5 mg/kg/injection, schedule: Q01DX009 (ip), vehicle: saline): 102 % of control
- T/C (dose: 12.5 mg/kg/injection, schedule: Q04DX003 (ip), vehicle: saline): 113 % of control
- T/C [15]: 115 % of control

Structure (SMILES): CC[n+]1ccccc1CCC(=O)Nc1ccccc1
- T/C [15]: 97 % of control
- T/C (dose: 50.0 mg/kg/injection, schedule: Q04DX003 (ip), vehicle: saline): 92 % of control
- T/C (dose: 100.0 mg/kg/injection, schedule: Q04DX003 (ip), vehicle: saline): 95 % of control
